Columns and labels:
[1] = Acetaldehyde-binding: acetaldehyde and ethanol levels in gastric juice after oral L-cysteine tablets and ethanol; format: in vivo, human; conditions: L-cysteine total 200 mg oral, film-coated tablets; ethanol 0.3 g/kg, 15 vol %; all measurements
Protocol: An analysis was carried out after administering L-cysteine (in a total of 200 mg) or placebo, orally to subjects. This cysteine or placebo was formulated into film-coated tablets as described above, with the cysteine or the placebo in granules together with a polymer not dissolving in the stomach and an inert bulking agent. The subjects swallowed said tablets with 200 ml of water. Immediately thereafter they were given ethanol (0.3 g/kg body weight) diluted in water to 15 vol %. Gastric juice samples were collected, and their L-cysteine concentrations were determined using HPLC, and two parallel samples. […] In all measurements, the average acetaldehyde concentration of the gastric juice was 2.6 times higher with placebo than with cysteine. […] The average ethanol concentration in the gastric juice was 5.0 vol-% in the first sample, declining to 0.9 vol-% in the 40-minute sample. A positive correlation emerged between the acetaldehyde concentration and the ethanol concentration.

[2] = L-cysteine concentration in gastric juice (HPLC) after oral tablets; format: in vivo, human; conditions: after oral administration of study formulations containing L-cysteine (total 200 mg)
Protocol: An analysis was carried out after administering L-cysteine (in a total of 200 mg) or placebo, orally to subjects. This cysteine or placebo was formulated into film-coated tablets as described above, with the cysteine or the placebo in granules together with a polymer not dissolving in the stomach and an inert bulking agent. The subjects swallowed said tablets with 200 ml of water. Immediately thereafter they were given ethanol (0.3 g/kg body weight) diluted in water to 15 vol %.
Gastric juice samples were collected, and their L-cysteine concentrations were determined using HPLC, and two parallel samples.
The mean cysteine concentrations are represented in FIG. 2. After administration of placebo formulations, no L-cysteine was detected. No significant correlation was found between the cysteine concentration and the acetaldehyde concentration.

## N[C@@H](CS)C(=O)O [L-cysteine]
[1]
  average acetaldehyde concentration of the gastric juice, times higher with placebo than with cysteine: 2.6 times
[2]
  L-cysteine detected in gastric juice: detected in the gastric juice of all subjects
